Columns and labels:
DHS2^WT [1] = biological target: T1, DHS2^WT (Arabidopsis thaliana, UniProt Q00218); test: DHS enzyme assay, recombinant DHS2^WT; format: biochemical; settings: recombinant enzyme; read-out: IC50 of effector molecule on DHS2^WT
T1 construct: without the predicted plastid transit peptide (amino acid residues; 49-525, 34-507, and 52-527, respectively); made in house; host or cells: E. coli Rosetta-2
Procedure: (§1) To generate recombinant DHS proteins the pET28a vectors carrying the A. thaliana DHS1 (AtDHS1), AtDHS2, or AtDHS3 WT sequence without the predicted plastid transit peptide (amino acid residues; 49-525, 34-507, and 52-527, respectively) were expressed in E. coli Rosetta-2 cells and purified using Ni-affinity chromatography, exactly as was conducted previously (9). To generate DHS proteins with individual sota mutations via site-directed mutagenesis, these pET28a plasmid templates were diluted by 500-fold, mixed with 0.04 U/μL Phusion DNA polymerase (Thermo Scientific), 0.2 mM deoxynucleoside triphosphates (dNTPs), 1× Phusion reaction buffer (Thermo Scientific), and 0.5 μM forward and reverse mutagenesis primers (Table 10). The PCR reaction was run using the following protocol: 98° C. for 30 s followed by 20 cycles of 10 s at 98° C., 20 s at 70° C., 4.5 min at 72° C. with a final extension at 72° C. for 10 min. The PCR products were purified using a QIAquick Gel Extraction Kit (QIAGEN), treated with FastDigest DpnI (Thermo Scientific) to digest methylated plasmid template DNA for 20 min at 37° C., and transformed into E. coli cells. The mutagenized pET28a plasmids were sequenced to confirm that no errors were introduced during the mutagenesis process.
The DHS enzyme assays were conducted using the colorimetric method that we recently described (9). Briefly, the enzyme solution (7.7 μl) containing 50 mM Hepes (pH 7.4) was preincubated with an effector molecule(s) at room temperature for 15 min. For assays using recombinant protein and enzyme fractions isolated from plant leaves, 0.01 to 0.1 μg and approximately 50 μg of proteins were used, respectively. After adding 0.5 μl of 0.1 M dithiothreitol, the samples were further incubated at room temperature for 15 min. During these incubations, the substrate solution containing 50 mM Hepes (pH 7.4), 2 mM MnCl2, 4 mM E4P, and 4 mM PEP at final concentration was preheated at 37° C. The enzyme reaction was started by adding 6.8 μl of the substrate solution, then incubated at 37° C. for 30 min, and terminated by adding 30 μl of 0.6 M trichloroacetic acid. After a brief centrifugation, 5 μl of 200 mM NaIO4 (sodium meta-periodate) in 9 N H3PO4 was added to oxidize the enzymatic product and to incubate at 25° C. for 20 min. To stop the oxidation reaction, 20 μl of 0.75 M NaAsO2 (sodium arsenite), which was dissolved in 0.5 M Na2SO4 and 0.05 M H2SO4, was added and immediately mixed. After 5 min of incubation at room temperature, one-third of the sample solution was transferred to a new tube to be mixed with 50 μl of 40 mM thiobarbituric acid and incubated at 99° C. for 15 min in a thermal cycler. The mixture was added to 600 μl of cyclohexanone in eight-strip solvent-resistant plastic tubes, mixed vigorously, and centrifuged at 4500 g for 3 min to separate water- and cyclohexanone-based layers for the extraction off the developed pink chromophore. The absorbance of the pink supernatant was read at 549 nm with the microplate reader (Infinite 200 PRO, TECAN) to calculate DAHP production with the molar extinction coefficient at 549 nm (ε=549 nm) of 4.5×10^4 M^−1 cm^−1. Reaction mixtures with boiled enzymes were run in parallel and used as negative controls to estimate the background signal.

sota mutant DHS enzymes = test: DHS enzyme assay, sota mutant enzymes compared with corresponding WT enzymes; format: biochemical, Arabidopsis thaliana
Procedure: as §1, with “The PCR products were purified using a QIAquick Gel Extraction Kit (QIAGEN), treated with FastDigest DpnI (Thermo Scientific) to digest methylated plasmid template DNA for 20 min at 37° C., and transformed into E. coli cells. The mutagenized pET28a plasmids were sequenced to confirm that no errors were introduced during the mutagenesis process.” left out
The DHS enzyme assays were conducted using the colorimetric method that we recently described (9). […] The absorbance of the pink supernatant was read at 549 nm with the microplate reader (Infinite 200 PRO, TECAN) to calculate DAHP production with the molar extinction coefficient at 549 nm (ε=549 nm) of 4.5×10^4 M^−1 cm^−1. […]

DHS2^WT [2] = biological target: T1, DHS2^WT; test: Differential scanning fluorimetry (DSF) protein-ligand affinity analysis, DHS2^WT; format: binding; settings: ligand at 1 mM
Procedure: To examine the impact of the sota mutations on the interaction between DHS and AAA effectors (FIG. 22), a differential scanning fluorimetry (DSF) analysis (48) was conducted using the recombinant DHS2^WT and DHS2^A4 proteins. […] The fluorescence signal was monitored during the stepwise increase in temperature (1° C. per minute from 25° C. to 95° C.). The Tm was calculated by nonlinear regression analysis using the Boltzmann sigmoidal equation (48).

T1 sequence (Q00218 34-507): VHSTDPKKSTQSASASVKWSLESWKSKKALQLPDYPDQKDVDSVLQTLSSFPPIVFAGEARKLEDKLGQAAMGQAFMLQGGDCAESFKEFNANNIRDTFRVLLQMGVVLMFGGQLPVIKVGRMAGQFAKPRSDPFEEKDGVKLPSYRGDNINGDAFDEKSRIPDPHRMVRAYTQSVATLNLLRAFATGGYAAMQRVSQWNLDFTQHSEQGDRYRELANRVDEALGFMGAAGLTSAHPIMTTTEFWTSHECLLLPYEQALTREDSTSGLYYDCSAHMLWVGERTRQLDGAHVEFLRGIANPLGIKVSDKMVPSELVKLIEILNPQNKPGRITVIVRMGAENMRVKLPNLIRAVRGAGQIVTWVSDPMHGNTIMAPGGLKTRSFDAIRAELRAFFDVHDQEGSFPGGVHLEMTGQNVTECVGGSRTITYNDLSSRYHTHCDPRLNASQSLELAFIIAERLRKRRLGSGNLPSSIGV

O=C(O)Cc1cc(O)ccc1O [HGA, homogentisate]
IC50 (DHS2^WT [1]): 73.9 µM

O=C(O)C(=O)Cc1ccc(O)cc1 [HPP, 4-Hydroxyphenylpyruvate]
increase of IC50 in sota mutant enzymes over corresponding WT enzymes (sota mutant DHS enzymes): up to 7 fold

N[C@@H](Cc1c[nH]c2ccccc12)C(=O)O [Trp, tryptophan]
effect on melting temperature (Tm) of DHS2^WT (DHS2^WT [2]): significantly increased the Tm
